# Reference: patent US6352988B2, “Indane or dihydroindole derivatives” (H. Lundbeck A/S, priority 1996, dated 2002)
# Where a name gives a salt, the structure may show the parent alone.
# What was measured:
# [1] = target: T1, dopamine D4 receptors in cloned human dopamine receptor subtype 4.2 membranes (Homo sapiens, UniProt P21917, DEL271-302); experiment: 3H-YM-09151-2 binding (affinity for dopamine D4 receptors); settings: 3H-YM-09151-2, cloned human D4.2 membranes; * means that the test result is preliminary; read-out: D4-bind. IC50
# T1 sequence (P21917 with tags, fused parts or gaps DEL271-302): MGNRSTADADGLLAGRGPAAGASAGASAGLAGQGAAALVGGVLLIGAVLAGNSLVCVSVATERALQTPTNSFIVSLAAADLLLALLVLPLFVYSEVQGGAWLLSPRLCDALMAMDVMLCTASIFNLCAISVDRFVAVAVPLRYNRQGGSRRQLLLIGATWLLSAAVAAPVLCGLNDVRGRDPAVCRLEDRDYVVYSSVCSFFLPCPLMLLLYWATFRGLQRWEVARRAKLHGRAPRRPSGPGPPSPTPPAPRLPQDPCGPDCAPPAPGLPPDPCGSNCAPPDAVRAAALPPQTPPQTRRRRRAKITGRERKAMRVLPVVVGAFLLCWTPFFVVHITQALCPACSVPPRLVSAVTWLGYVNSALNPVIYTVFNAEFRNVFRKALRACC
# Method: By this method the inhibition by drugs of the binding of the dopamine D4 antagonist ^3H-YM-09151-2 to dopamine D4 receptors in cloned human dopamine receptor subtype 4.2 membranes is determined in vitro. Accordingly, this is a test for affinity for dopamine D4 receptors. The test is performed using a preparation of cloned dopamine D4 cell membranes CRM-016®, Dupharma A/S, Denmark, in accordance with the product specifications.
Compound,melting point [°C],IC50 [1] [nM]
COc1cc2c(cc1OC)CC(CN1CCC(c3c[nH]c4cc(Cl)ccc34)CC1)C2,68 to 79,–
CC(=O)Nc1ccc2c(c1)CC(CN1CCC(c3c[nH]c4cc(Cl)ccc34)CC1)C2 (stereo not shown),151 to 152,–
"CC(=O)Nc1ccc2c(c1)CCC2CN1CC=C(c2c[nH]c3cc(Cl)ccc23)CC1 (stereo not shown) (as salt: fumarate) [Compound 6d, 6-Chloro-3-[1-(5-acetylamino-1-indanylmethyl)-1,2,3,6-tetrahydropyridin-4-yl]-1H-indole]",241 to 242,–
"c1ccc2c(c1)CC(CN1CCN(c3ccc4[nH]ccc4c3)CC1)C2 (as salt: hydrochloride) [Compound 11f, 5-[4-(Indan-2-yl)methylpiperazin-1-yl]-1H-indole]",263 to 265,–
CC(C)Oc1cccc2c1CC(CN1CCC(c3c[nH]c4cc(Cl)ccc34)CC1)C2 (stereo not shown) (as salt: oxalate),119 to 126,–
CC(C)Oc1cccc2c1CC(CN1CCC(c3c[nH]c4ccc(F)cc34)CC1)C2 (stereo not shown) (as salt: oxalate),181 to 189,–
CC(=O)Nc1ccc2c(c1)CC(CN1CC=C(c3c[nH]c4cc(Cl)ccc34)CC1)C2 (stereo not shown) (as salt: oxalate),201 to 203,–
"Clc1ccc2c(C3CCN(CCCCC4CCc5ccccc54)CC3)c[nH]c2c1 (stereo not shown) (as salt: oxalate) [Compound 8f, 6-Chloro-3-[1-[4-(indan-1-yl)butan-1-yl)-piperidin-4-yl]-1H-indole]",206 to 208,–
Clc1ccc2c(C3=CCN(CCCCC4CCc5ccccc54)CC3)c[nH]c2c1 (stereo not shown) (as salt: oxalate) [Compound 8h],191 to 192,–
"Clc1cccc2c(C3=CCN(CC4Cc5ccccc5C4)CC3)c[nH]c12 (as salt: oxalate) [Compound 11c, 7-Chloro-3-[1-(indan-2-yl)methyl-1,2,3,6-tetrahydropyridin-4-yl]-1H-indole]",135 to 136,–
CC(=O)Nc1ccc2c(c1)C(CCN1CC=C(c3c[nH]c4cc(Cl)ccc34)CC1)CC2 (stereo not shown) (as salt: oxalate) [Compound 18c],153 to 155,–
"CC(=O)Nc1ccc2c(c1)C(CCCN1CC=C(c3c[nH]c4cc(Cl)ccc34)CC1)CC2 (stereo not shown) (as salt: oxalate) [Compound 18d, 6-Chloro-3-[1-[3-(6-acetylaminoindan-1-yl)propan-1-yl]-1,2,3,6-tetrahydropyridin-4-yl]-1H-indole]",110 to 115,–
"CC(=O)Nc1ccc2c(c1)C(CCCCN1CC=C(c3c[nH]c4cc(Cl)ccc34)CC1)CC2 (stereo not shown) (as salt: oxalate) [Compound 18e, 6-Chloro-3-[1-[4-(6-acetylaminoindan-1-yl)butan-1-yl]-1,2,3,6-tetrahydropyridin-4-yl]-1H-indole]",125 to 128,–
"Clc1ccc2c(C3=CCN(CCC4CNc5ccccc54)CC3)c[nH]c2c1 (stereo not shown) [Compound 30a, 6-Chloro-3-[1-[2-(2,3-dihydro-1H-indol-3-yl)ethyl]-1,2,3,6-tetrahydropyridin-4-yl]-1H-indole]",–,9.9

# Next, values leading:
melting point [°C],IC50 [1] [nM],Compound
251 to 253,–,"c1ccc2c(c1)CC(CCN1CCN(c3ccc4[nH]ccc4c3)CC1)C2 (as salt: hydrochloride) [Compound 25b, 5-[4-[2-(Indan-2-yl)ethyl]piperazin-1-yl]-1H-indole]"
–,5.3,"c1ccc2c(c1)CC(CCN1CCN(c3ccc4[nH]ccc4c3)CC1)C2 [Compound 25b, 5-[4-[2-(Indan-2-yl)ethyl]piperazin-1-yl]-1H-indole]"
–,160,"Clc1ccc2c(ccn2C2=CCN(CCC3Cc4ccccc4C3)CC2)c1 [Compound 28a, 5-Chloro-1-[1-[2-(indan-2-yl)ethyl]-1,2,3,6-tetrahydropyridin-4-yl]-1H-indole]"
–,14,"C1=C(n2ccc3ccccc32)CCN(CCC2Cc3ccccc3C2)C1 [Compound 28b, 1-[1-[2-(Indan-2-yl)ethyl]-1,2,3,6-tetrahydropyridin-4-yl]-1H-indole]"
–,6.9,"Clc1ccc2c(ccn2C2CCN(CCC3Cc4ccccc4C3)CC2)c1 [Compound 29a, 5-Chloro-1-[1-[2-(indan-2-yl)ethyl]piperidin-4-yl]-1H-indole]"
